Assay results: patent publication US11180504B2 (ORCHID PHARMA LTD., priority 2016, dated 2021)
≈ marks a conversion by molar mass, not a printed value.

Columns and labels:
[1] = system: methicillin-sensitive Staphylococcus aureus; test: MIC by broth micro-dilution (CLSI), methicillin-sensitive S. aureus; assay type: cell-based; conditions: Staphylococcus aureus, ATCC 29213 / MSSA, MSSA S. aureus ATCC29213; read-out: MIC
[2] = system: carbapenemase producing K. pneumoniae; test: MIC by broth micro-dilution (CLSI), carbapenemase producing K. pneumoniae; assay type: cell-based, Klebsiella pneumoniae; conditions: Klebsiella pneumoniae, ATCCBAA1705, KPC-2 K. pneumoniae ATCC BAA-1705; read-out: MIC
[3] = system: carbapenem sensitive Escherichia coli; test: MIC by broth micro-dilution (CLSI), carbapenem sensitive E. coli; assay type: cell-based; conditions: Escherichia coli, ATCC25922, ESBL −ve E. coli ATCC25922; read-out: MIC
[4] = system: carbapenem sensitive Pseudomonas aeruginosa; test: MIC by broth micro-dilution (CLSI), carbapenem sensitive P. aeruginosa; assay type: cell-based; conditions: Pseudomonas aeruginosa, ATCC27853, Meropenem susceptible P. aeruginosa ATCC27853; read-out: MIC
[5] = system: extended spectrum β lactamase (ESBL) SHV18 producing Klebsiella pneumoniae; test: MIC by broth micro-dilution (CLSI), ESBL SHV18 producing K. pneumoniae; assay type: cell-based; conditions: Klebsiella pneumoniae, ATCC700603, 22 h, ESBL +ve (SHV-18) K. pneumoniae ATCC700603; read-out: MIC

| Structure (SMILES) | MIC [1] [µg/mL] | MIC [2] [µg/mL] | MIC [3] [µg/mL] | MIC [4] [µg/mL] | MIC [5] [µg/mL] |
| --- | --- | --- | --- | --- | --- |
| C[C@@H](NC(=O)C(F)F)[C@H]1C(=O)N2C(C(=O)O)=C(S[C@@H]3CN[C@H](C(=O)N4CCC[C@H](N)C4)C3)[C@H](C)[C@H]12 [Example 122] | 1 (≈ 1.94 µM) | 4 (≈ 7.76 µM) | 1 (≈ 1.94 µM) | 16 (≈ 31 µM) | 4 (≈ 7.76 µM) |
| C[C@@H](NC(=O)C(F)F)[C@H]1C(=O)N2C(C(=O)O)=C(S[C@@H]3CN[C@H](C(=O)N4CCC(C(=O)O)CC4)C3)[C@H](C)[C@H]12 [Example 37] | 16 (≈ 29.4 µM) | 16 (≈ 29.4 µM) | 1 (≈ 1.84 µM) | > 128 | 1 (≈ 1.84 µM) |
| C[C@@H](NC(=O)C(F)F)[C@H]1C(=O)N2C(C(=O)O)=C(S[C@@H]3CN[C@H](C(=O)N4CC[C@@H](NC(=O)CN)C4)C3)[C@H](C)[C@H]12 [Example 160] | 4 (≈ 7.16 µM) | 8 (≈ 14.3 µM) | 1 (≈ 1.79 µM) | 16 (≈ 28.6 µM) | 8 (≈ 14.3 µM) |
| C[C@@H](NC(=O)C(F)F)[C@H]1C(=O)N2C(C(=O)O)=C(S[C@@H]3CN[C@H](C(=O)N4CC[C@H](n5cc(CN)nn5)C4)C3)[C@H](C)[C@H]12 [Example 176] | 2 (≈ 3.43 µM) | 8 (≈ 13.7 µM) | 1 (≈ 1.72 µM) | 8 (≈ 13.7 µM) | 4 (≈ 6.87 µM) |
| COCc1cn([C@H](C)[C@H]2C(=O)N3C(C(=O)O)=C(S[C@@H]4CN[C@H](C(=O)N(C)C)C4)[C@H](C)[C@H]23)nn1 [Example 233] | 4 (≈ 8.36 µM) | 4 (≈ 8.36 µM) | 1 (≈ 2.09 µM) | > 128 | 4 (≈ 8.36 µM) |
| C[C@@H](NC(=O)CNS(C)(=O)=O)[C@H]1C(=O)N2C(C(=O)O)=C(S[C@@H]3CN[C@H](C(=O)N(C)C)C3)[C@H](C)[C@H]12 [Example 70] | 16 (≈ 30.9 µM) | 16 (≈ 30.9 µM) | 4 (≈ 7.73 µM) | > 128 | 8 (≈ 15.5 µM) |
| C[C@@H](NC(=O)[C@H]1CCCO1)[C@H]1C(=O)N2C(C(=O)O)=C(S[C@@H]3CN[C@H](C(=O)N(C)C)C3)[C@H](C)[C@H]12 [Example 58] | 32 (≈ 66.6 µM) | > 128 | 16 (≈ 33.3 µM) | > 128 | > 128 |
| CC(C)OC(=O)C(=O)N[C@H](C)[C@H]1C(=O)N2C(C(=O)O)=C(S[C@@H]3CN[C@H](C(=O)N(C)C)C3)[C@H](C)[C@H]12 [Example 73] | 4 (≈ 8.05 µM) | 8 (≈ 16.1 µM) | 1 to 2 (≈ 2.01 to 4.03 µM) | 4 to 16 (≈ 8.05 to 32.2 µM) | 4 (≈ 8.05 µM) |
| C[C@@H](NC(=O)C(F)F)[C@H]1C(=O)N2C(C(=O)O)=C(S[C@@H]3CN[C@H](C(=O)N4CC[C@@H](ON)C4)C3)[C@H](C)[C@H]12 [Example 164] | 1 (≈ 1.93 µM) | 4 (≈ 7.73 µM) | 0.25 (≈ 0.483 µM) | 32 (≈ 61.8 µM) | 1 (≈ 1.93 µM) |
| C[C@@H](NC(=O)CN(C)C)[C@H]1C(=O)N2C(C(=O)O)=C(S[C@@H]3CN[C@H](C(=O)N4CCNCC4)C3)[C@H](C)[C@H]12 [Example 182] | 128 (≈ 252 µM) | 16 (≈ 31.5 µM) | 8 (≈ 15.7 µM) | 8 (≈ 15.7 µM) | 16 (≈ 31.5 µM) |

Now from value to compound:

| MIC [1] [µg/mL] | MIC [2] [µg/mL] | MIC [3] [µg/mL] | MIC [4] [µg/mL] | MIC [5] [µg/mL] | Structure (SMILES) |
| --- | --- | --- | --- | --- | --- |
| 2 (≈ 3.86 µM) | 4 (≈ 7.71 µM) | 0.25 (≈ 0.482 µM) | 32 (≈ 61.7 µM) | 1 (≈ 1.93 µM) | C[C@@H](NC(=O)C(F)F)[C@H]1C(=O)N2C(C(=O)O)=C(S[C@@H]3CN[C@H](C(=O)N4C[C@H](O)[C@@H](O)C4)C3)[C@H](C)[C@H]12 [Example 198] |
| 4 to 8 (≈ 6.99 to 14 µM) | 8 (≈ 14 µM) | 1 (≈ 1.75 µM) | 16 to 32 (≈ 27.9 to 55.9 µM) | 8 (≈ 14 µM) | C[C@@H](NC(=O)C(F)F)[C@H]1C(=O)N2C(C(=O)O)=C(S[C@@H]3CN[C@H](C(=O)N4C[C@@H](N)C[C@H]4C(=O)N(C)C)C3)[C@H](C)[C@H]12 [Example 142] |
| 0.5 (≈ 1.02 µM) | 4 (≈ 8.17 µM) | 0.5 (≈ 1.02 µM) | 128 (≈ 261 µM) | 8 (≈ 16.3 µM) | C[C@@H](NC(=O)C(F)F)[C@H]1C(=O)N2C(C(=O)O)=C(S[C@@H]3CN[C@H](CNC(=O)N(C)C)C3)[C@H](C)[C@H]12 [Example 89] |
| 8 (≈ 15.9 µM) | > 128 | 1 (≈ 1.99 µM) | 128 (≈ 255 µM) | 2 (≈ 3.98 µM) | C[C@@H](NC(=O)CS(C)(=O)=O)[C@H]1C(=O)N2C(C(=O)O)=C(S[C@@H]3CN[C@H](C(=O)N(C)C)C3)[C@H](C)[C@H]12 [Example 78] |
| 2 (≈ 4.08 µM) | 8 (≈ 16.3 µM) | 1 (≈ 2.04 µM) | 32 to 64 (≈ 65.2 to 130 µM) | 8 (≈ 16.3 µM) | C[C@@H](NC(=O)C(F)(F)CO)[C@H]1C(=O)N2C(C(=O)O)=C(S[C@@H]3CN[C@H](C(=O)N(C)C)C3)[C@H](C)[C@H]12 [Example 143] |
| 2 (≈ 3.85 µM) | 4 (≈ 7.7 µM) | 1 (≈ 1.92 µM) | 16 (≈ 30.8 µM) | 4 (≈ 7.7 µM) | C[C@@H](NC(=O)C(F)F)[C@H]1C(=O)N2C(C(=O)O)=C(S[C@@H]3CN[C@H](C(=O)N4C[C@H](N)[C@@H](F)C4)C3)[C@H](C)[C@H]12 [Example 211] |
